Laboratory results reported in patent US6750256B1, “Use of aromatic aldehydes as insecticides” (Proguard, Inc., priority 1994, dated 2004).

Legend:
[1] = tested on: thrips insects (Frankliniella occidentalis); assay: Residual activity on treated filter paper against thrips; format: in vivo; settings: rehydrated 24 and 72 hours after spraying, thrips exposed one hour
Procedure: In the first experiment, two ml of two concentrations of CNMA (0.3 and 1%) were sprayed on filter paper (Whatman). As a negative control, two ml of water was also sprayed on filter paper. Twenty-four hours later, two ml of water were sprayed on treatment and control filter paper, which were then dried for 30 min. Approximately 30 thrips insects (Frankliniella occidentalis) were introduced onto the treated filter papers and the number of F. occidentalis were observed after one hour. Mean mortality was calculated for each treatment. After 72 hours, the treated filter papers were flipped over and only the negative control filter paper and the filter paper treated with 1% CNMA were sprayed with 2 ml of water and allowed to dry for 30 minutes. Approximately 30 thrips were introduced onto the two treated filter papers and after one hour the number of dead F. occidentalis were observed and the mean mortality calculated for each treatment. A similar assay was conducted using AHCNMA. Mean mortality was higher for rehydrated filter papers compared to non-rehydrated filter papers over time.

[2] = tested on: cat flea (Ctenocepalides felis); assay: Cat flea contact treatment on sprayed carpet plugs; format: in vivo; settings: 72 hours
Procedure: The treatment of cat flea (Ctenocepalides felis) with various formulations containing alpha hexyl cinnamaldehyde is tested as follows. In a double blind experiment, variable concentrations of the formulae were tested for activity against cat flea (Ctenocepalides felis). The initial experiments tested alpha hexyl cinnamaldehyde at concentrations of 5%, 10% and 20% in 6% Tween 80. As controls, a formula blank containing 6% Tween 80 and negative control with no formulae were tested. Fleas were put in direct contact with the formulae and mortality was assessed both visually and by probing at 72 hours after contact.
Approximately […] of each formula concentration was sprayed on 0.279 square meter carpet section (DuPont) at 20 PSI. After allowing to air dry (20 minutes), four plugs each 14 cm in diameter were cut from each treated carpet section. One plug was used for each replicate for four total replications. For each treatment and replicate, 25 fleas were introduced on each plug. Plugs were then rolled and put in an escape proof, ventilated 2 liter container. After 72 hours mortality was assessed.

rats = settings: cited from earlier work
[3] = cited from earlier work
human subjects [4] = settings: 20% in diethylphthalate; 100 human subjects; cited from earlier work
[5] = at 25° C.; cited from earlier work
human subjects [6] = settings: 12% in petrolatum; 48 hour closed-patch test on human subjects; cited from earlier work
[7] = tested on: two-spotted spider mite, Tetranychus urticae; assay: Spider mite treated petri dish contact bioassay; format: in vivo; settings: positive control, 10 ppm; 24 hours contact
Procedure: Activity of cinnamic aldehyde and/or coniferyl aldehyde against two-spotted spider mite, Tetranychus urticae is determined as follows. In a double blind experiment, intersurfaces of petri dishes (60 mm diameter) were treated with 100 μl of a test formulation and allowed to air dry and used within the hour. Twenty adult spider mites were put in each dish and the percent of mortality of the spider mites after 24 hours in contact with the treated dishes Was determined.

[8] = tested on: Adult human lice (Pediculus humanus); format: in vivo; settings: 2% in water, lice submerged 1, 4 or 10 minutes
Procedure: Adult human lice (Pediculus humanus) were treated with α-butyl cinnamic aldehyde to determine its pediculicidal activity. […] For each of four replicates, 25 mixed sex lice were placed in a 9 dram plastic vial and covered with a screened plunger to keep the lice from floating to the surface. The vial containing the lice was dipped into a 100 ml beaker containing 2% α-butyl cinnamic aldehyde, which was dissolved in water or distilled water as a negative control. Lice were submerged in the 2% α-butyl cinnamic aldehyde for 1, 4 or 10 minutes. After this time, the test container was removed from the treatment, submerged in a 1000 mL beaker containing distilled water (32° C.) from a wash bottle. Subsequently, lice were allowed to recover in an incubator maintained at 31.7° C. in 60% RH (relative humidity) for 1 hour. Following the recovery period, lice were examined for their ability to move toward heat. For this observation, the lice were placed on a patch which was placed on a second patch that was on top of a slide warmer maintained at 37° C. Lice not dead or morbid (unable to move towards heat 1 hour after treatment; sickly, but not necessarily dying; may recover by 24 hours), will move to the lower patch. Lice again were examined for their ability to move towards 24 hours later. […]

CCCCCCC(C=O)=Cc1ccccc1 [HCA, 2-(phenylmethylene) octanal]
residual activity in words [1]: residual activity
Percent Mortality ([2]; 5% wt/vol in 6% Tween 80): 84%
Percent Mortality ([2]; 10% wt/vol in 6% Tween 80): 92%
Percent Mortality ([2]; 20% wt/vol in 6% Tween 80): 86%
flea mortality ([2]; all treatments (5%, 10% and 20% in 6% Tween 80)): greater than 80%
oral LD50 (rats): 3100 mg/kg
dermal LD50 [3]: greater than 3 g/kg
reactions in repeated insult patch test (human subjects [4]): no positive reactions
vapor pressure [5]: 70×10^−5 mm Hg
irritation (human subjects [6]): no irritation

CCN(CC)c1cccc(C)c1 [N,N-diethyl-m-toluamine, reference compound]
vapor pressure [5]: 167×10^−5 mm Hg

CNC(=O)Oc1cccc2ccccc12 [Sevin, reference compound]
Percent Mortality (24 hours) [7]: 100%

CCCCC(C=O)=Cc1ccccc1 [α-butyl cinnamic aldehyde]
mortality ([8]; at 24 hours): 98.6%
knockdown ([8]; at the 1 hour time point): 100%
